Legend:
Experiment in all cases: relative viability (nuclei count vs DMSO), 5 days (fraction); higher = more cells survive
[1] = compound: COC1=CC=C(C=C1)CN2C=CC3=C2C=C(C=C3)C(=O)NO + CC1(C)CCC(c2ccc(Cl)cc2)=C(CN2CCN(c3ccc(C(=O)NS(=O)(=O)c4ccc(N[C@H](CCN5CCOCC5)CSc5ccccc5)c(S(=O)(=O)C(F)(F)F)c4)cc3)CC2)C1 [Navitoclax] (partner 0.5 µM)
In short: (§1)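 Cells from lung cancer lines were seeded into 1536-well plates and, one day later, dosed by pin tool. Treatments were either a single drug or a fixed dose of an anchor drug with five library-drug doses (not always all listed) in √10 steps. After 5 days, nuclei were stained in a one-step fixation (final 0.05% Triton X-100, 1% formaldehyde, 1 ug/ml Hoechst) and counted on 4× images, and relative viability is the treated-to-vehicle nuclei ratio, as the median of duplicate plates.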

[2] = compound: COC1=CC=C(C=C1)CN2C=CC3=C2C=C(C=C3)C(=O)NO + COc1cc2c(Oc3ccc(NC(=O)C4(C(=O)Nc5ccc(F)cc5)CC4)cc3F)ccnc2cc1OCCCN1CCOCC1 [Foretinib] (partner 0.25 µM)
In short: as §1

Veliparib = compound: C[C@]1(c2nc3c(C(N)=O)cccc3[nH]2)CCCN1 [Veliparib]
In short: (§2)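 Five library-drug doses, separated by factors of √10, were pinned into 1536-well plates holding lung cancer cell lines after an overnight stay at 37 °C. Cells were fixed, permeabilised and Hoechst-stained in one step after 5 days without medium change, then imaged at 4×. Viability compares treated-well with vehicle-well nuclei, counted in MetaXpress, as a median across plates. Passing plates had control CV below 25% and at least one doubling.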

[3] = compound: COC1=CC=C(C=C1)CN2C=CC3=C2C=C(C=C3)C(=O)NO
In short: as §2

Cell Line	relative viability ([1]; first compound 0.253 µM)	relative viability ([1]; first compound 0.8 µM)	relative viability ([1]; first compound 2.53 µM)	relative viability ([1]; first compound 8 µM)	relative viability ([2]; first compound 0.253 µM)	relative viability ([2]; first compound 0.8 µM)	relative viability ([2]; first compound 2.53 µM)	relative viability ([2]; first compound 8 µM)	relative viability (Veliparib; 0.02 µM)	relative viability (Veliparib; 0.06325 µM)	relative viability (Veliparib; 0.2 µM)	relative viability (Veliparib; 0.6325 µM)	relative viability (Veliparib; 2 µM)	relative viability ([3]; 0.253 µM)	relative viability ([3]; 0.8 µM)	relative viability ([3]; 2.53 µM)	relative viability ([3]; 8 µM)	relative viability ([2]; first compound 0.08 µM)	relative viability ([3]; 0.08 µM)	relative viability ([1]; first compound 0.08 µM)
A-427	1	1.02	1.04	0.806	1.03	1.16	1.12	1	0.781	0.995	0.943	0.939	0.841	0.98	1.01	0.952	0.806	–	–	–
HCC-366	1.05	1.14	1.06	1.13	0.994	0.89	0.992	0.923	1.03	0.992	1	1.01	1.03	0.993	0.973	0.964	1.01	0.433	0.791	–
LCLC-97TM1	0.505	0.472	0.42	0.412	0.992	0.96	0.942	0.923	0.903	0.925	0.897	0.912	0.993	1.03	1.02	0.942	0.887	0.444	–	–
NCI-H2170	0.669	0.715	0.634	0.509	0.961	0.994	1.03	1.02	0.989	0.954	0.967	0.96	0.991	0.994	0.977	0.98	0.906	0.978	0.973	0.476
NCI-H2085	1.04	1.19	1.01	1.08	0.979	1.12	0.84	0.991	0.851	0.999	0.983	0.922	1.01	0.991	1.04	0.996	0.968	0.906	1.01	0.891
NCI-H1666	0.893	0.988	1.26	1.06	1.06	0.985	0.963	1.06	0.943	0.976	0.981	0.876	0.937	0.99	1.09	1.03	1.03	0.755	0.891	0.85
HCC-78	0.718	0.856	0.872	0.709	0.629	0.594	0.585	0.6	0.987	0.829	0.949	0.828	0.888	0.876	1.01	1.02	0.917	0.529	0.803	–
201T	1.24	1.22	1.23	1.19	1.15	1.24	1.06	0.999	0.901	0.926	0.959	1.11	1.01	0.987	1.05	0.993	0.942	1.06	1.02	1.19
NCI-H596	0.906	1.07	0.963	1.04	0.983	0.846	0.895	0.523	0.932	0.933	0.966	0.93	0.908	1.1	1.08	0.989	0.947	0.841	0.962	0.944
LXF-289	0.947	0.954	0.935	1.03	0.994	1.01	1.02	1.03	0.996	0.992	1.03	0.941	1	1.01	1	0.992	0.992	–	–	0.446
Calu-6	0.84	0.805	0.828	0.698	0.853	0.851	0.889	0.725	1	0.968	0.935	0.905	1	1.01	1.03	0.998	0.977	0.419	0.825	0.809
NCI-H2087	1.03	1.13	1.08	0.856	1.15	1.17	1.03	0.962	0.854	0.97	0.936	0.955	1.05	1	1.19	0.935	0.85	0.659	0.913	0.974
NCI-H441	0.708	0.701	0.523	0.595	1.26	0.943	1.03	0.844	1.09	0.967	0.982	0.772	0.884	1.03	1.18	1.04	0.867	0.933	0.997	0.611
NCI-H3122	1	1.02	1.02	1.03	1	0.913	0.993	0.947	1	1.01	0.974	0.957	1	0.984	0.954	0.989	0.955	0.942	0.971	1.01
